Several values for one entry are separate records, joined by “and”; a condition that tells them apart may be missing. Equal values may be shown once. Strand notation (5' to 3'): a small letter for the sugar, then the base; units joined by * are phosphorothioate-linked, units joined directly phosphodiester-linked; [ ] holds rarer units or linkages, { } end groups; capitals alone tell only the bases. [NM031] = nucleoside analogue NM031 of the disclosure, C16 lipid conjugate (uridine-based); {VP} = (thio)vinylphosphonate on the antisense 5' nucleotide, as listed; m = 2'-O-methyl; f = 2'-fluoro
Assays:
target gene SOD1 [1] = assay: Test Example 3: inhibitory activity of lipid conjugated siRNA sequences on SOD1 by lateral ventricle administration to mice; format: in vivo, C57BL/6j mice; conditions: 200 μg per mouse, D5
Description: 6-8 Week-old C57BL/6j mice were randomly grouped by body weight. Mice in each group were administered with siRNA by lateral ventricle administration, with an administration dose per mouse depending on a specific test. Taking Bregma in mouse brain as point 0 (origin), coordinates of right ventricle were found using the cerebral stereotaxic apparatus and position was marked on surface of skull (position of lateral ventricle was AP (anteroposterior, bregma anterior and posterior): −0.58 mm, ML (mediolateral, left and right of middle raphe): −1.2 mm, DV (dorsoventral, up and down cerebral dura mater plane): −2.2 mm). A dental electric drill was used to drill in the skull above a position of interest, and then medicament was injected into the lateral ventricle by a micro-dosing pump, wherein a total injection volume was 5 μL, and injection duration was 10 min. Needle was retained for 5 min after completion of injection, and then slowly withdrawn. Afterwards, needle hole was sealed with biomedical glue, and then head skin was adhered. After animals woke up, the animals were returned back to animal house and further fed. PBS control group was administered with the same volume of siRNA-free PBS solution. The day of administration was recorded as 0 day (D0), and the mice were sacrificed at observation point after the administration. Different parts of brain region were respectively taken and stored in the RNAlater.
(§1) RNA extraction: the above tissue samples were taken out from the RNAlater, and smashed for 60 s in Tissuelyser type II full-automatic tissue homogenizer, and total RNAs of various tissue samples were extracted using the full-automatic nucleic acid extraction instrument and the nucleic acid extraction kit from Zhejiang Hanwei Science and Technology Co. Ltd. according to methods described in instructions.
(§2) Reverse transcription reaction: 1 μg of the extracted total RNAs of the tissue samples were taken, and configured into 20 μL of reverse transcription system according to a method described in kit instructions by using a reverse transcription kit (Reverse Transcription System, A3500) from Promega Corporation and selecting Oligo (dT)15 reverse transcription primers, and the reverse transcription reaction was completed. After the reaction was ended, 80 μL of RNase-Free water was added into the reverse transcription system to provide cDNA solution for Real-time PCR detection.
(§3) Real-time PCR detection: 20 μL of Real-time PCR reaction system per PCR detection well was configured according to a method described in kit instructions using SYBR™ Select Master Mix (Catalog number: 4472908) reagent from ABI company. Each detection system contained 5 μL of cDNA template obtained from the above reverse transcription reaction, 10 μL of SYBR™ Select Master Mix, 0.5 μL of 10 μM upstream primers, 0.5 μL of 10 μM downstream primers, and 4 μL of RNase-Free H2O. The configured reaction system was subjected to Real-time PCR amplification on ABI StepOnePlus PCR instrument by a three-step method, wherein an amplification procedure was pre-denaturation at 95° C. for 10 min, then denaturation at 95° C. for 30 s, annealing at 60° C. for 30 s, and extension at 72° C. for 30 s; and processes of denaturation, annealing, and extension were repeated for 40 cycles. Gene expression differences were calculated by the ΔΔCt method after completion of the procedure.
In the real-time fluorescence quantitative PCR method, relative quantitative calculation of remaining expression level and inhibition rate of gene mRNA of interest in various test groups was performed by the ΔΔCt method, and the calculation method is as follows: […]

target gene SOD1 [2] = assay: Test Example 5: inhibitory activity of lipid conjugated siRNA sequences on SOD1 by intrathecal administration to rats; format: in vivo, SD rats; set-up: key to Lumbar segmen Mean value of inhibition rate / Cortex Mean value of inhibition rate / Thoracic segment Mean value of inhibition rate / Cervical segment Mean value of inhibition rate / Cerebellum Mean value of inhibition rate / Hippocampus Mean value of inhibition rate: inhibition rate of SOD1 mRNA, calculated by the ΔΔCt method; conditions: D7
Description: 6-8 Week-old SD rats were randomly grouped by body weight. Rats in each group were administered with siRNA by intrathecal administration, with an administration dose of 900 μg per rat. Injection was administered from rat spinal cord L5-L6, with an administration volume of 40 μL. Needle was retained for 2 min after completion of injection, and then slowly withdrawn. PBS control group was administered with the same volume of siRNA conjugate-free PBS solution. The day of administration was recorded as 0 day (D0), and the rats were sacrificed at observation point after administration. Different segments of spinal cord and different regions of brain were respectively taken and stored in the RNAlater.
as §1, §2, §3
In the real-time fluorescence quantitative PCR method, relative quantitative calculation of remaining expression level and inhibition rate of gene mRNA of interest in various test groups was performed by the ΔΔCt method, and the calculation method is as follows:
The present example evaluated, by an evaluation method for inhibitory activity on a target gene by intrathecal administration to rats, the inhibitory activity of siRNA sequence RZ899060 with the sense strand with the NM031 conjugation at Position 4 and vector-free siRNA sequence RZ899056, and Uhd conjugated siRNA reference sequence RZ899055 on the target gene SOD1 of interest in spinal cord and brain of rats.
6-8 Week-old SD rats were randomly grouped by body weight, 5 per group, 4 groups in total. Rats in each group were dosed with the above siRNA conjugates by intrathecal administration, with an administration dose of 900 μg per rat, and an administration volume of 40 μL. PBS control group was administered with the same volume of siRNA conjugate-free PBS solution. The day of administration was recorded as 0 day (D0), and the rats were sacrificed on D7 after administration. […]

RZ899060: siRNA sequence with the sense strand with the NM031 conjugation at Position 4; SEQ ID NO: 3 / 22 (sense mU*mU*mU[NM031]mAmAfUfCfCmUmCmAmCmUmCmUmAmAmA; antisense {VP}-mU*fU*mUmAmGfAmGmUmGmAmGmGmAfUmUfAmAmAmA*mU*mG)
Cerebellum Mean value of inhibition rate % (target gene SOD1 [1]; cerebellum): 56.11%
Cortex Mean value of inhibition rate % (target gene SOD1 [1]; cortex): 79.05%
Hippocampus Mean value of inhibition rate % (target gene SOD1 [1]; hippocampus): ≥ 90% and 90.98%
Cerebellum Mean value of inhibition rate (target gene SOD1 [2]; cerebellum, intrathecal, 900 μg per rat): 55.10
Cortex Mean value of inhibition rate (target gene SOD1 [2]; cerebral cortex, intrathecal, 900 μg per rat): 43.00
activity compared with the reference sequence RZ899055 (target gene SOD1 [2]; hippocampus and cortex in the brain region, intrathecal 900 μg per rat): substantially comparable
Hippocampus Mean value of inhibition rate (target gene SOD1 [2]; hippocampus, intrathecal, 900 μg per rat): 47.77
activity compared with the Uhd conjugated reference sequence RZ899055 (target gene SOD1 [2]; lumbar segment, intrathecal 900 μg per rat): substantially comparable
inhibitory activity in the spinal cord segments (target gene SOD1 [2]; lumbar, thoracic and cervical segment, intrathecal 900 μg per rat): ≥ 80%
Cervical segment Mean value of inhibition rate (target gene SOD1 [2]; spinal cord cervical segment, intrathecal, 900 μg per rat): 83.37
Lumbar segmen Mean value of inhibition rate (target gene SOD1 [2]; spinal cord lumbar segment, intrathecal, 900 μg per rat): 84.24
Thoracic segment Mean value of inhibition rate (target gene SOD1 [2]; spinal cord thoracic segment, intrathecal, 900 μg per rat): 94.54
activity compared with the Uhd conjugated reference sequence RZ899055 (target gene SOD1 [2]; thoracic segment and cervical segment of spinal cord, intrathecal 900 μg per rat): superior
